This is an account of results in patent publication US20110039763A1, “TARGETED ANTIMICROBIAL MOIETIES” (C3 JIAN, INC., priority 2009, published 2011).

In this assay the test system is microorganisms. The experiment in a line: Morphology, biofilm and growth disrupting peptides (Table 5). More on the design: key: A: Peptide aggregates; B: Less hyphal formation; Clumps; Diffuse clumps and small polyps; F: Diffuse growth; H: Thin; I: Growth inhibition; Microcolony formation; Rippled; Small polyps; Thick; W: Halo formation on top, microlonies on bottom. The format is cell-based. An excerpt: In certain embodiments peptides that induce alterations in phenotype or other biological activities can also be used as antimicrobial effector moieties.

Consider DLLKSLLGQDGAKNDEIIEFIKIIMEK [PF-591], for which the “Organism, effect” value is listed as “C. jejuni (C)” (C. jejuni), “E. faecalis (A)” (E. faecalis) and “S. pneumoniae (R)” (S. pneumoniae). Take KTPNDKIHKTIIIKHIIL [PF-533]: the “Organism, effect” value is, setting by setting: (E. coli) “E. coli (R)”; (E. faecalis) “E. faecalis (C)”; (MRSA) “MRSA (H)”; (S. epidermidis) “S. epidermidis (H)”; (S. pneumoniae) “S. pneumoniae (C)”. With “PF-019 (NDTNK; Peptide with targeting and/or antimicrobial activity)”, the “Organism, effect: MRSA” value (MRSA) is “MRSA (M)”. On to “PF-032 (RIVVPAHQSNMASTPNLSITP; Peptide with targeting and/or antimicrobial activity)”, for which the “Organism, effect: C. jeikeium” value is reported as “C. jeikeium (C)”. Further, for the setting “S. epidermidis”, the “Organism, effect: S. epidermidis” value is on record as “S. epidermidis (S)”. For “PF-059 (TITLKAGIERALHEEVPGVIEVEQVF; Peptide with targeting and/or antimicrobial activity)”, the “Organism, effect: C. jejuni” value (C. jejuni) is listed as “C. jejuni (C)”. Turning to “PF-199 (FPAFSFGAIAGSVSVAR; Peptide with targeting and/or antimicrobial activity)”, the “Organism, effect: C. jeikeium” value is listed as “C. jeikeium (R)” and the “Organism, effect: M. luteus” value is on record as “M. luteus (A)”. Besides, the “Organism, effect: S. epidermidis” value (S. epidermidis) is on record as “S. epidermidis (C)”. With “PF-220 (VDPADDGTRHIRPEDGDPIEIDE; Peptide with targeting and/or antimicrobial activity)”, where the note is “S. pneumoniae”, the “Organism, effect: S. pneumoniae” value was “S. pneumoniae (H)”.

For “PF-250 (SEDIFGRLANEKANGLEELRKIRLKQ; Peptide with targeting and/or antimicrobial activity)”, the “Organism, effect: M. luteus” value was “M. luteus (T)”. The same measure, in the same setting: then “PF-264 (MQSLSNRQSLIASYILMGIFLSFGYPPASLSKFFCRLSHL; Peptide with targeting and/or antimicrobial activity)”, with “M. luteus (H)”. Regarding “PF-274 (SIQEAEKIIKNDPFYIHDVADYDFMWFEPSKSLEEIKEFV; Peptide with targeting and/or antimicrobial activity)”, the “Organism, effect: M. luteus” value was “M. luteus (M)”. Consider “PF-290 (MVHDMTNGTLIIVKH; Peptide with targeting and/or antimicrobial activity)”, for which the “Organism, effect: S. epidermidis” value (S. epidermidis) is listed as “S. epidermidis (C)”. The same measure, in the same setting: then “PF-293 (YDPLK; Peptide with targeting and/or antimicrobial activity)”, with “S. epidermidis (C)”. With “PF-296 (GAFGMPSIKTNTICGEKGKFISACDAWLSNLK; Peptide with targeting and/or antimicrobial activity)”, under “B. subtilis”, the “Organism, effect: B. subtilis” value is “B. subtilis (C)”. Also, where the note is “S. epidermidis”, the “Organism, effect: S. epidermidis” value is on record as “S. epidermidis (C)”. Turning to “PF-303 (EYPWSWISEPWPWDKSFYK; Peptide with targeting and/or antimicrobial activity)”, the “Organism, effect: B. subtilis” value (B. subtilis) is listed as “B. subtilis (C)”.

For the substance “PF-310 (GVALIGTILVPLLSGLFG; Peptide with targeting and/or antimicrobial activity)”, for the setting “S. epidermidis”, the “Organism, effect: S. epidermidis” value was “S. epidermidis (C)”. As to “PF-318 (MGRHLWNPSYFVATVSENTEEQIRKYINNQKKQVK; Peptide with targeting and/or antimicrobial activity)”, the “Organism, effect: B. subtilis” value (B. subtilis) is “B. subtilis (C)”. Also, the “Organism, effect: S. epidermidis” value (S. epidermidis) is recorded as “S. epidermidis (C)”.

As to “PF-335 (AAYPIEDWSDWYEDFFIMLSNI; Peptide with targeting and/or antimicrobial activity)”, the “Organism, effect: B. subtilis” value (B. subtilis) is “B. subtilis (C)”. Further, the “Organism, effect: S. epidermidis” value (S. epidermidis) is on record as “S. epidermidis (C)”. Taken in the same sequence, the figures for “PF-339 (KKIDILINKYMYLSK; Peptide with targeting and/or antimicrobial activity)” were “B. subtilis (C)” and “S. epidermidis (C)”. With “PF-342 (AFSGVYKTLIVYTRRK; Peptide with targeting and/or antimicrobial activity)”, the “Organism, effect: B. subtilis” value (B. subtilis) is recorded as “B. subtilis (C)”. The “Organism, effect: S. epidermidis” value (S. epidermidis) is listed as “S. epidermidis (C)”. As to “PF-415 (MIDVTIGQKSKTGAFNASYSICFSGENFSF; Peptide with targeting and/or antimicrobial activity)”, the “Organism, effect: S. pneumoniae” value (S. pneumoniae) is “S. pneumoniae (D)”. Same read-out and setting: next, “PF-419 (VVTGKVGSLPQIK; Peptide with targeting and/or antimicrobial activity)”: “S. pneumoniae (H)”. For the substance “PF-449 (MPTTKSKQKGWTNTKKASNTQ; Peptide with targeting and/or antimicrobial activity)”, the “Organism, effect” value (S. pneumoniae) is on record as “S. pneumoniae (H)”. With “PF-455 (MARNDDDIKKIKGTLGQSPEVYGERKLPYT; Peptide with targeting and/or antimicrobial activity)”, the “Organism, effect” value (S. pneumoniae) is “S. pneumoniae (A)”.

Take “PF-468 (EDNKDKKDKKDK; Peptide with targeting and/or antimicrobial activity)”: the “Organism, effect” value (S. pneumoniae) is reported as “S. pneumoniae (H)”. The same measure, in the same setting: next, “PF-485 (KNSMSRSIALID; Peptide with targeting and/or antimicrobial activity)”: “S. pneumoniae (A)”. For the substance “PF-532 (KFIYKYKLSFIIYKILIQTLTMELNK; Peptide with targeting and/or antimicrobial activity)”, the “Organism, effect” value by setting is: (E. coli) “E. coli (C)”; (E. faecalis) “E. faecalis (C)”; (MRSA) “MRSA (C)”; (S. pneumoniae) “S. pneumoniae (C)”. For “PF-534 (KYFHLFYHNIIHYSKQHLSLKVDFKN; Peptide with targeting and/or antimicrobial activity)”, the “Organism, effect” value is listed as “E. coli (R)” (E. coli); “E. faecalis (C)” (E. faecalis); “MRSA (C)” (MRSA); “S. epidermidis (C)” (S. epidermidis); “S. pneumoniae (R)” (S. pneumoniae).

Turning to “PF-535 (NIKTRKRALKIIKQHQRSK; Peptide with targeting and/or antimicrobial activity)”, the “Organism, effect” value runs as follows: (P. aeruginosa) “P. aeruginosa (H)”; (S. pneumoniae) “S. pneumoniae (H)”. With “PF-536 (MEPIPHIMIIANQIGIIIEKA; Peptide with targeting and/or antimicrobial activity)”, the “Organism, effect” value is on record as “E. coli (R)” (E. coli); “E. faecalis (C)” (E. faecalis); “MRSA (C)” (MRSA); “P. aeruginosa (H)” (P. aeruginosa); “S. epidermidis (C)” (S. epidermidis); “S. pneumoniae (M)” (S. pneumoniae). Regarding “PF-541 (RRNLNSPNIKTRKRALKIIKQHQRSK; Peptide with targeting and/or antimicrobial activity)”, the “Organism, effect” value (E. coli) is “E. coli (H)” and the “Organism, effect” value (S. pneumoniae) is “S. pneumoniae (H)”. As to “PF-561 (ESLEADVQAELDTEAAKYPALPASF; Peptide with targeting and/or antimicrobial activity)”, the “Organism, effect” value (B. subtilis) is “B. subtilis (D)” and the “Organism, effect” value (MRSA) is recorded as “MRSA (M)”.
